Measurements reported in patent US10039839B2, “Compounds that participate in cooperative binding and uses thereof” (Warp Drive Bio, Inc., priority 2015, dated 2018).
Square brackets hold non-standard residues; d marks the D form. Peptide text beside a SMILES is read from it. MeBmt = C/C=C/C[C@@H](C)[C@@H](O)[C@H](NC)C(=O)O; NMeY = CN[C@@H](Cc1ccc(O)cc1)C(=O)O; NMeL = CN[C@@H](CC(C)C)C(=O)O; NMeNva = CCC[C@H](NC)C(=O)O; NMeV = CN[C@H](C(=O)O)C(C)C; NMeA = CN[C@@H](C)C(=O)O; dNMeA = CN[C@H](C)C(=O)O; Abu = CC[C@H](N)C(=O)O; Sar = CNCC(=O)O

molecular target: T1, Cyclophilin A (Homo sapiens, UniProt P62937); assay: biochemical; type: binding; details: not given
T1 construct: made in house
T1 sequence (P62937 whole entry, species assumed): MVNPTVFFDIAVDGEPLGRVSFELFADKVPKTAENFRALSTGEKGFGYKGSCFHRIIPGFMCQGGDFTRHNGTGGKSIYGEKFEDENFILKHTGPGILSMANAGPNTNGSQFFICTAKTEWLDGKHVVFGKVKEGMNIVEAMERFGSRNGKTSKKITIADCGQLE
Description: This protocol utilizes Perkin Elmers AlphaLISA technology platform to detect cyclosporine analogues by measuring the inhibition of binding of biotinylated Cyclosporin A to FLAG tagged Cyclophilin A.
Add 20 uL of 6 nM Biotinylated CsA working stock to each well of the 96-well plate. Add 1 uL of test compound (100% DMSO) to each well of the plate using the Janus MTD head and P20 tips (except control wells). Add 1 uL of DMSO to negative control wells and 1 uL of 500 uM Cyclosporin A solution to positive control wells. In the dark, add 20 uL of combined Donor/Acceptor beads to each well. Incubate in the dark for 30 minutes at room temperature. […] Incubate in the dark for 60 minutes at room temperature.

| SMILES | % inhibition of CsA binding to Cyclophilin A [%] |
| --- | --- |
| C/C=C/C[C@@H](C)[C@@H](O)[C@H]1C(=O)N[C@@H](CC)C(=O)N(C)CC(=O)N(C)[C@H](C)C(=O)N[C@@H](C(C)C)C(=O)N(C)[C@@H](C)C(=O)N[C@@H](CC(C)C)C(=O)N[C@H](C)C(=O)N(C)[C@@H](CC(C)C)C(=O)N(C)[C@@H](CC(C)C)C(=O)N(C)[C@@H](C(C)C)C(=O)N1C [C83] (cyclo([MeBmt][Abu][Sar][dNMeA]V[NMeA]L[dA][NMeL][NMeL][NMeV])) | 99.35 |
| C/C=C/C[C@@H](C)[C@@H](O)[C@H]1C(=O)N[C@@H](CC)C(=O)N(C)CC(=O)N(C)[C@@H](Cc2ccc(O)cc2)C(=O)N[C@@H](C(C)C)C(=O)N(C)[C@@H](CC(C)C)C(=O)N[C@@H](CC)C(=O)N[C@H](C)C(=O)N(C)[C@@H](CC(C)C)C(=O)N(C)[C@@H](CC(C)C)C(=O)N(C)[C@@H](C(C)C)C(=O)N1C [C100] (cyclo([Abu][Sar][NMeY]V[NMeL][Abu][dA][NMeL][NMeL][NMeV][MeBmt])) | 95.72 |
| C/C=C/C[C@@H](C)[C@@H](O)[C@H]1C(=O)N[C@@H](CC)C(=O)N(C)CC(=O)N(C)[C@@H](CCC)C(=O)N[C@@H](C(C)C)C(=O)N(C)[C@@H](CC(C)C)C(=O)N[C@@H](CC)C(=O)N[C@H](C)C(=O)N(C)[C@@H](CC(C)C)C(=O)N(C)[C@@H](CC(C)C)C(=O)N(C)[C@@H](C(C)C)C(=O)N1C [C102] (cyclo([Abu][Sar][NMeNva]V[NMeL][Abu][dA][NMeL][NMeL][NMeV][MeBmt])) | 99.30 |

system: HeLa-FKBP12 cells; assay: Biosensor cell permeability assay, FKBP binding compounds; type: cell-based; details: 72 hrs
Description: This protocol utilizes a modified FKBP or cyclophilin destabilizing mutant to determine the bioactivity of FKBP binding compounds or cyclophilin binding compounds in whole cell assay.
Plate HeLa-FKBP12 cells (for FKBP binding compounds) or HeLa-Cyclophilin A cells (for cyclophilin binding compounds) and seed overnight at 5 k/well (approximately ˜18 hrs.). Using a multi-channel pipet, take out the old media and add ˜125 ul of new media with compounds. Compounds are diluted using DMEM without Phenol Red, 10% FBS, 1× Sodium Pyruvate, 1× Glutamax. Add 125 ul of media with compound per well. Cells are treated with compounds at concentration: 30, 10, 3.33, 1.11, 0.37, 0.12, 0.04 and 0.013 uM. Time points are taken at 72 hrs and plate read using plate reader with excitation/emission: 575/620.
Cell binding/permeability is calculated in fold-change (Total RFU of treated samples/total RFU of DMSO treated samples or total RFU above background (Total RFU minus total RFU of DMSO treated samples).

| SMILES | IC50 [µM] |
| --- | --- |
| CC[C@H](Cc1ccccc1)[C@@H]1/C=C/C/C=C/C[C@@H](C)[C@H](O)[C@@H](C)[C@@H]2CC[C@@H](C)C(=O)C(O)(O2)C(=O)N2CCC[C@H]2C(=O)O1 [F4] | < 1 |
| CCC(/C=C(\C)C(O)CCC(C)/C=C/C(O)C(C)C1CCC(C)C(O)(C(=O)C(=O)N2CCCCC2C(=O)O)O1)C/C(C)=C/C1=CC(O)C(O)C=C1 (centres unmarked) [F14] | > 1 |
| CC[C@H](Cc1cccc(O)c1)[C@@H]1/C=C/C/C=C/C[C@@H](C)[C@H](O)[C@@H](C)[C@@H]2CC[C@@H](C)C(=O)C(O)(O2)C(=O)N2CCCC[C@H]2C(=O)O1 [F20] | < 1 |
| CC[C@H](Cc1cccc(O)c1)[C@@H]1/C=C/C=C/CC[C@@H](C)[C@H](O)[C@@H](C)[C@@H]2CC[C@@H](C)[C@@](O)(O2)C(=O)C(=O)N2CCCC[C@H]2C(=O)O1 [F21] | < 1 |
| CC[C@H](Cc1ccccc1)[C@@H]1/C=C/C=C/CC[C@@H](C)C(=O)[C@@H](C)[C@@H]2CC[C@@H](C)[C@@](O)(O2)C(=O)C(=O)N2CCCC[C@H]2C(=O)O1 [F22] | > 1 |

molecular target: FKBP12 (Homo sapiens, UniProt P62942); assay: AlphaLISA: inhibition of binding of biotinylated FK506 to FLAG tagged FKBP12; set-up: made in house; details: not given
Sequence (P62942 whole entry, species assumed): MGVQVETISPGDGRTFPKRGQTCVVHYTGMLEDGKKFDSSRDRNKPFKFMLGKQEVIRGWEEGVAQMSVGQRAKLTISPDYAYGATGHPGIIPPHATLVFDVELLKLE
Description: This protocol utilizes Perkin Elmers AlphaLISA technology platform to detect FKBP binders by measuring the inhibition of binding of biotinylated FK506 to FLAG tagged FKBP12.
Add 20 uL of 12.5 nM FKBP-FLAG working stock to each well of the 96-well plate. Add 1 uL of test compound (100% DMSO) to each well of the plate using the Janus MTD head and P20 tips (except control wells). Add 1 uL of DMSO to negative control wells and 1 uL of 50 uM FK506 solution to positive control wells. In the dark, add 20 uL of combined Donor/Acceptor beads to each well. Incubate in the dark for 30 minutes at room temperature. In the dark, add 10 uL of 5 nM biotinylated FK506 working stock to each well. Incubate in the dark for 60 minutes at room temperature. Protect plate from light until reading on Biotek Synergy2 Plate Reader; Alphalisa 96-well protocol (680 excitation/615 emission).

| SMILES | IC50 [µM] |
| --- | --- |
| CCC(/C=C(\C)C(O)CCC(C)/C=C/C(O)C(C)C1CCC(C)C(O)(C(=O)C(=O)N2CCCCC2C(=O)O)O1)C/C(C)=C/C1=CC(O)C(O)C=C1 (centres unmarked) [F14] | 1.8 |
| CCC(/C=C(\C)C(O)CCC(C)/C=C/C(O)C(C)C1CCC(C)C(O)(C(=O)C(=O)N2CCCCC2C(=O)O)O1)C/C(C)=C/C1=CC(OC)C(O)C=C1 (centres unmarked) [F15] | 1.93 |

same assay, conditions: read-out: Binding affinity to FKBP12 (by displacement of FK506)

| SMILES | IC50 [µM] |
| --- | --- |
| CC[C@H](Cc1ccccc1)[C@@H]1CCCCCC(=O)[C@@H](C)[C@H](O)[C@@H](C)[C@@H]2CC[C@@H](C)[C@@](O)(O2)C(=O)C(=O)N2CCCC[C@H]2C(=O)O1 [F24, (S)-1-(2-((2R,3R,6S)-6-((2R,3R,4S,6E,9E,11R,12R)-12-benzyl-3,11-dihydroxy-4-methyl-5-oxotetradeca-6,9-dien-2-yl)-2-hydroxy-3-methyltetrahydro-2H-pyran-2-yl)-2-oxoacetyl)piperidine-2-carboxylic acid C-11 lactone] | 0.00021 |
